In the NIST ThermoML archive (doi:10.1021/je100835n):
± gives the expanded uncertainty stated by the source.

Details: Liquid, Gas chromatography

SMILES | vapor or sublimation pressure (338.15 K) | vapor or sublimation pressure (348.15 K) | vapor or sublimation pressure (358.15 K) | vapor or sublimation pressure (368.15 K) | vapor or sublimation pressure (378.15 K) | vapor or sublimation pressure (388.15 K) | vapor or sublimation pressure (398.15 K) | vapor or sublimation pressure (408.15 K) | vapor or sublimation pressure (418.15 K) | vapor or sublimation pressure (428.15 K) | vapor or sublimation pressure (438.15 K)
C[Si]1(C)O[Si](C)(C)O[Si](C)(C)O[Si](C)(C)O[Si](C)(C)O[Si](C)(C)O[Si](C)(C)O1 [tetradecamethylcycloheptasiloxane] | 0.01 ± 0.0021 kPa | 0.0213 ± 0.0045 kPa | 0.04349 ± 0.0092 kPa | 0.08542 ± 0.018 kPa | 0.1619 ± 0.034 kPa | 0.2968 ± 0.063 kPa | 0.528 ± 0.11 kPa | 0.9129 ± 0.19 kPa | 1.538 ± 0.33 kPa | – | –
C[Si](C)(C)O[Si](C)(C)O[Si](C)(C)O[Si](C)(C)O[Si](C)(C)O[Si](C)(C)C [tetradecamethylhexasiloxane] | 0.01845 ± 0.0039 kPa | 0.03767 ± 0.008 kPa | 0.07392 ± 0.016 kPa | 0.1398 ± 0.03 kPa | 0.2557 ± 0.054 kPa | 0.4533 ± 0.096 kPa | 0.7809 ± 0.17 kPa | 1.31 ± 0.28 kPa | 2.143 ± 0.45 kPa | 3.427 ± 0.73 kPa | 5.364 ± 1.1 kPa
